# Assay results from patent US8563248B2, “Compositions and methods for detection of colorectal cancer” (priority 2005, dated 2013).
# Experiments:
# IBABP mRNA = experiment: Regulation of IBABP expression in Caco-2 cells, quantitative RT-PCR; type: cell-based, human; conditions: 100 nM, 24 h, normalized to ARPP0
# Experimental: (§1) The expression of IBABP-L and IBABP was measured by quantitative RT-PCR. The mRNA copy number of each variant is normalized to the expression the housekeeping gene ARPP0. Values in the figure represent the average of three experiments with each replicate performed in duplicate.
# (§2) To determine the relative expression levels of IBABP-L and IBABP, a two-step quantitative RT-PCR procedure was used. In the first step, complementary DNA (cDNA) was synthesized from total RNA. […] In the second step, quantitative PCT (QPCR) was carried out on a Mx 3000P Real-Time PCR System (Stratagene, La Jolla, Calif.) using a solution containing diluted cDNA (1:20; 2.0 μl), 1×SYBR Green PCR Master Mix (Applied Biosystems, Foster City, Calif.), and primers for IBABP-L, IBABP, or ARPP0 (0.25 μM). […]
# (§3) Caco-2 cells were seeded in six-well plates (Falcon) at 2×10^5 cells/well. […] Cells were harvested, cellular RNA was isolated using the RNeasy Mini Kit (Qiagen) according to manufacturer instruction, and expression of IBABP variants was determined by QPCR as described above. […]
# IBABP-L mRNA = experiment: Regulation of IBABP-L expression in Caco-2 cells, quantitative RT-PCR; type: cell-based, human; conditions: 24 h, normalized to ARPP0
# Experimental: as §1, §2, §3
# BAR = target: T1, BAR (Homo sapiens, UniProt Q96RI1); conditions: gene-selective BAR modulator; cited from earlier work
# T1 sequence (Q96RI1 1-486): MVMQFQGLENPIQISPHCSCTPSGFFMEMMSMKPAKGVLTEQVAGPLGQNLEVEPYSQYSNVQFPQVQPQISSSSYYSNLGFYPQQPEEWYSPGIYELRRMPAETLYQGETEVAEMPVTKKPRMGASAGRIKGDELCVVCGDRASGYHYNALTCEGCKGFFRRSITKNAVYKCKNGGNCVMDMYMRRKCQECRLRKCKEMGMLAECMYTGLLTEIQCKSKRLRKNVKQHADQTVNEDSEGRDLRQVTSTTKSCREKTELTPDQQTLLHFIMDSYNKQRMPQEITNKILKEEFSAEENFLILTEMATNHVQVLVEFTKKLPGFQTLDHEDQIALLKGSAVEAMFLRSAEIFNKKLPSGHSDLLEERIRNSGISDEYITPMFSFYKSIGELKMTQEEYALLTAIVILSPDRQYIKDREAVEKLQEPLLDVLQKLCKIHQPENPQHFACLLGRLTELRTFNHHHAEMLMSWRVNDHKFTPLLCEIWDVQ
structure (smiles),measurement,setting,value
"CC1=C(/C=C/C(C)=C\C=C\C(C)=C\C(=O)O)C(C)(C)CCC1 [9cRA, 9-cis-retinoic acid]",effect on expression of IBABP,IBABP mRNA,up-regulated
same,effect on expression of IBABP-L,IBABP-L mRNA; 100 nM,without effect
"C[C@H](CCC(=O)O)[C@H]1CC[C@H]2[C@@H]3[C@H](O)C[C@@H]4C[C@H](O)CC[C@]4(C)[C@H]3CC[C@]12C [CDCA, chenodeoxycholic acid]",effect on expression of IBABP-L,IBABP-L mRNA; 100 μM,without effect
CCCCCCOc1c(\C(C)=C/C=C/C(C)=C/C(=O)O)cc(C(C)C)cc1C(C)C [AGN34],action on CYP7A1,BAR,agonist
same,action on IBABP,BAR,antagonist
same,action on SHP,BAR,neutral
